Experimental data reported in ChEMBL document CHEMBL1129417, “Glucose transport-enhancing and hypoglycemic activity of 2-methyl-2-phenoxy-3-phenylpropanoic acids” (1996).
Values joined by “and” are separate entries in the source; they are usually repeats but may differ in a detail not shown here. Identical values can stand only once.

Key:
Type in all cases: functional
Mus musculus [1] = assay: In vivo hypoglycemic activity expressed as glucose lowering relative to positive control in 6-8 week old C57BL/6J ob/ob mouse at 5 mg/kg.
Rattus norvegicus = organism: Rattus norvegicus; assay: Inhibition of gluconeogenesis in rat
Mus musculus [2] = assay: In vivo hypoglycemic activity expressed as glucose lowering relative to positive control in 6-8 week old C57BL/6J ob/ob mouse at 10 mg/kg
Mus musculus [3] = assay: In vivo hypoglycemic activity expressed as glucose lowering relative to positive control in 6-8 week old C57BL/6J ob/ob mouse at 1 mg/kg.
3T3-L1 [4] = assay: Acute effects in vitro by measuring 2-deoxyglucose (2DG) uptake in vehicle treated 3T3-L1 adipocytes at 30 uM dose.
3T3-L1 [5] = assay: In vitro measurements of 2-Deoxyglucose (2DG) uptake in vehicle treated 3T3-L1 adipocytes at 60 uM dose.
3T3-L1 [6] = assay: Acute effects in vitro by measuring 2-deoxyglucose (2DG) uptake in vehicle treated 3T3-L1 adipocytes at 10 uM dose.
3T3-L1 [7] = assay: In vitro by measurements of 2-Deoxyglucose (2DG) uptake in vehicle treated 3T3-L1 adipocytes at 3 uM dose.
[8] = Rattus norvegicus, read-out: ED50

Row | SMILES | Hypoglycemic activity (Mus musculus [1]) | ED50 (Rattus norvegicus; [8]) | Hypoglycemic activity (Mus musculus [2]) | Hypoglycemic activity (Mus musculus [3]) | Basal uptake (3T3-L1 [4]) | Basal uptake (3T3-L1 [5]) | Basal uptake (3T3-L1 [6]) | Basal uptake (3T3-L1 [7]) | Hypoglycemic activity (Mus musculus [2]; 10 mg/kg) | ED50 (Rattus norvegicus)
1 | CCc1ccc(CC(C)(Oc2ccc(Cc3ccccc3)cc2)C(=O)[O-])cc1.[Na+] (configuration not stated) | 104% | 1 mg/kg | 107% | 44% |  |  |  |  |  | 
2 | CC(Cc1ccc(Cl)cc1)(Oc1ccc(Cc2ccccc2)cc1)C(=O)[O-].[Na+] (configuration not stated) | 100% | 1 mg/kg | 96% | 44% | 109% | 214% |  |  |  | 
3 | Cc1cc(C)c(CC(C)(Oc2ccc(C(C)C)cc2)C(=O)[O-])c(C)c1.[Na+] (configuration not stated) |  | < 10 mg/kg | 77% |  | 106% | 173% | 148% |  |  | 
4 | CC(C)c1ccc(OC(C)(COP(=O)([O-])[O-])Cc2ccc(Cl)cc2)cc1.[Ca+2] (configuration not stated) |  | > 10 mg/kg | 50% |  |  |  |  |  |  | 
5 | CC(C)c1ccc(OC(C)(Cc2ccc3ccccc3c2)C(=O)O)cc1 (configuration not stated) |  | > 10 mg/kg | 46% |  |  |  |  |  |  | 
6 | COc1ccc(S(=O)(=O)NC(=O)C(C)(Oc2ccc(C(C)C)cc2)C(C)c2ccc(Cl)cc2)cc1 (configuration not stated) |  | > 10 mg/kg | 16% |  | 162% |  | 113% | 130% |  | 
7 | CCc1ccc(CC(C)(Oc2ccc(C(C)C)cc2)C(=O)NS(=O)(=O)C(F)(F)F)cc1 (configuration not stated) |  | > 10 mg/kg | 27% |  |  |  |  |  |  | 
8 | CC(C)c1ccc(OC(C)(Cc2ccc3c(c2)CCCC3)C(=O)[O-])cc1.[Na+] (configuration not stated) | 75% | < 5 mg/kg | 99% |  |  |  |  |  |  | 
9 | CC(C)c1ccc(OC(C)(Cc2ccc(C(C)(C)C)cc2)C(=O)O)cc1 (configuration not stated) | 47% | 5 mg/kg | 102% | 41% | 213% and 103% |  | 104% |  |  | 
10 | CC(C)C1CCC(OC(C)(Cc2ccc(Cl)cc2)C(=O)[O-])CC1.[Na+] (configuration not stated) |  | > 10 mg/kg | <0% |  |  |  |  |  |  | 
11 | CC(C)c1ccc(OC(C)(Cc2ccc(Cl)cc2)c2nnn[nH]2)cc1 (configuration not stated) |  | 10 mg/kg | <0% |  | 159% and 105% |  | 105% |  |  | 
12 | CC(Cc1ccc(Cl)cc1)(Oc1ccc(Oc2ccccc2)cc1)C(=O)O (configuration not stated) | 100% | < 1 mg/kg | 108% | 60% |  |  |  |  |  | 
13 | CCc1cccc(CC(C)(Oc2ccc(C3CCSc4ccccc43)cc2)C(=O)[O-])c1.[Na+] (configuration not stated) |  | > 10 mg/kg | 35% |  |  |  | 113% | 116% and 104% |  | 
14 | CC(C)c1ccc(OC(C)(Cc2ccc(Cl)c(Cl)c2)C(=O)O)cc1 (configuration not stated) | 24% | 5 mg/kg | 111% | 0% |  |  |  |  |  | 
15 | COc1ccc(CC(C)(Oc2ccc(C(C)C)cc2)C(=O)O)cc1 (configuration not stated) |  | > 10 mg/kg | 41% |  |  |  |  |  |  | 
16 | CCCc1ccc(CC(C)(Oc2ccc(C(C)C)cc2)C(=O)NS(=O)(=O)C(F)(F)F)cc1 (configuration not stated) |  | > 10 mg/kg | 35% |  |  |  |  |  |  | 
17 | CC(C)c1ccc(OC(C)(Cc2ccc(Cl)cc2)C(=O)/N=C(\N)NO)cc1 (configuration not stated) | 44% | 10 mg/kg | 49% | <0% |  |  |  |  |  | 
18 | CC(C)c1ccc(OC(C)(CO)Cc2ccc(Cl)cc2)cc1 (configuration not stated) |  | 10 mg/kg | <0% |  | 118% |  | 121% | 118% |  | 
19 | COc1ccc(Cc2ccc(OC(C)(Cc3ccc(Cl)cc3)C(=O)[O-])cc2)cc1.[Na+] (configuration not stated) |  | < 10 mg/kg | 74% |  |  |  |  |  |  | 
20 | CC(Cc1ccc(Cl)cc1)(Oc1ccc(C2CCSCC2)cc1)C(=O)[O-].[Na+] (configuration not stated) |  | < 10 mg/kg | 64% |  |  | 108% |  |  |  | 

Row | SMILES | Hypoglycemic activity (Mus musculus [1]) | ED50 (Rattus norvegicus; [8]) | Hypoglycemic activity (Mus musculus [2]) | Hypoglycemic activity (Mus musculus [3]) | Basal uptake (3T3-L1 [4]) | Basal uptake (3T3-L1 [5]) | Basal uptake (3T3-L1 [6]) | Basal uptake (3T3-L1 [7]) | Hypoglycemic activity (Mus musculus [2]; 10 mg/kg) | ED50 (Rattus norvegicus)
21 | COc1ccccc1CC(Oc1ccc(C(C)C)cc1)C(=O)O (configuration not stated) |  | > 10 mg/kg | <0% |  |  | 78% |  |  |  | 
22 | CC(Cc1ccc(Cl)cc1)(Oc1ccc(Br)cc1)C(=O)O (configuration not stated) |  | < 1 mg/kg | 22% |  | 134% |  | 109% | 120% |  | 
23 | CC(C)c1ccc(OC(C)(Cc2ccc(Cl)cc2)C(=O)NS(C)(=O)=O)cc1 (configuration not stated) | 0% | 5 mg/kg |  |  | 255% | 200% | 100% |  | 96% and 100% | 
24 | COc1ccc(Cl)cc1C(=O)NCCc1ccc(CC(C)(Oc2ccc(C(C)C)cc2)C(=O)O)cc1 (configuration not stated) |  | > 10 mg/kg | 24% |  |  |  |  |  |  | 
25 | CC(C)c1ccc(OC(C(=O)O)C(C)c2ccc(Cl)cc2)cc1 (configuration not stated) |  | > 10 mg/kg | 17% |  |  | 111% |  |  |  | 
26 | Cc1ccccc1S(=O)(=O)NC(=O)C(C)(Cc1ccc(Cl)cc1)Oc1ccc(C(C)C)cc1 (configuration not stated) |  | > 10 mg/kg | <0% |  | 232% and 126% |  | 251% |  |  | 
27 | CC(C)c1ccc(OC(C)(Cc2ccc(Cl)cc2)C(=N)NO)cc1 (configuration not stated) |  | > 10 mg/kg | 27% |  |  |  |  |  |  | 
28 | CCc1ccc(CC(C)(Oc2ccc(Oc3ccccc3)cc2)C(=O)O)cc1 (configuration not stated) | 113% | 1 mg/kg | 130% | 48% |  |  |  |  |  | 
29 | CC(C)c1ccc(OC(C)(Cc2ccc(Cl)cc2)C(=O)CO)cc1 (configuration not stated) |  | > 10 mg/kg | 32% |  |  |  |  |  |  | 
30 | CC(Cc1ccc(Cl)cc1)(Oc1ccc(Cc2ccc(Cl)cc2)cc1)C(=O)[O-].[Na+] (configuration not stated) |  | > 10 mg/kg | <0% |  | 112% and 90% |  | 94% |  |  | 
31 | COc1ccc(S(=O)(=O)NC(=O)C(C)(Cc2ccc(Cl)cc2)Oc2ccc(C(C)C)cc2)cc1 (configuration not stated) |  | > 10 mg/kg | 22% |  | 154% | 67% | 101% |  |  | 
32 | CCCCc1cccc(CC(C)(Oc2ccc(C(C)C)cc2)C(=O)[O-])c1.[Na+] (configuration not stated) | 85% | 1 mg/kg | 91% | <0% | 113% |  | 129% |  |  | 
33 | CC(Cc1ccc(Cl)cc1)(Oc1ccccc1Cc1ccc(Cl)cc1)C(=O)[O-].[Na+] (configuration not stated) |  | 10 mg/kg | 52% |  | 97% and 100% |  | 88% |  |  | 
34 | CCCc1ccc(CC(C)(Oc2ccc(Cc3ccccc3)cc2)C(=O)[O-])cc1.[Na+] (configuration not stated) | 91% | 1 mg/kg | 96% | 24% |  |  |  |  |  | 
35 | COc1ccccc1CC(C)(Oc1ccc(C(C)C)cc1)C(=O)O (configuration not stated) |  | > 10 mg/kg | <0% |  | 122% | 120% | 100% |  |  | 
36 | CCc1ccccc1CC(C)(Oc1ccc(C(C)C)cc1)C(=O)[O-].[Na+] (configuration not stated) | 53% | 5 mg/kg | 95% | 32% |  |  |  |  |  | 
37 | CC(C)c1ccc(OC(C(=O)[O-])C(C)c2ccc(Cl)cc2)cc1.[Na+] (configuration not stated) |  | > 10 mg/kg | 41% |  |  | 98% |  |  |  | 
38 | CC(C)c1ccc(OC(C)(C(=O)O)C(C)c2ccc(Cl)cc2)cc1 (stereo in doubt; 85) |  |  |  |  | 131% | 209% | 128% |  | 46% | >10 mg/kg
39 | CC(C)c1ccc(OC(C)(C(=O)O)C2CCc3cc(Cl)ccc32)cc1 (stereo in doubt; 101) |  |  |  |  | 85% |  | 86% | 71% | 35% | >10 mg/kg
